Results taken from patent EP2392568A1, “Heterocyclic amino acids for prostate cancer imaging” (priority 2010, dated 2011).

Key:
[1] = system: DU145 prostate cancer cells; assay: Cell-uptake experiment: uptake of [14C] ACPC in the presence of excess heterocyclic amino acid; assay type: cell-based; details: 5 µM 14C-ACPC, 60 minutes at 37°C, uptake buffer PBS with 0.1% BSA, Figure 10
Procedure: To assess the difference between heterocyclic amino acids and other non-natural amino acids, we studied the uptake of the cyclic amino acid [14C] ACPC into DU145 prostate cancer cells in the presence of excess amount of an heterocyclic amino acid (compound 15). 25000 DU145 cells were seeded per cavity of a 48 well incubation plate (Becton Dickinson; Cat. 353078) and incubated for 2 days in D-MEM / F-12 (1:1) with GlutaMAx (Invitrogen; Cat. 31331) medium supplemented with 10% FCS in an incubator (37°C, 5%CO2).

DU145 xenografts = assay: PET/CT-imaging in DU145-tumor bearing mice; assay type: in vivo; details: microPET/CT; for renal clearance / background activity: 50-70min after injection; for tumor-contrast: 50-70min after injection of - 10 MBq radiotracer; for background activity: except for kidney and bladder uptake
Procedure: Example 9 was imaged on a microPET/ CT (Inveon, Siemens) in DU145 tumor-bearing mice 50-70min after injection of - 10 MBq radiotracer 45.
Example 10 was imaged on a microPET/ CT (Inveon, Siemens) in DU145 tumor-bearing mice 50-70min after injection of - 10 MBq radiotracer 46.

[2] = system: primary prostate cancer tumors; details: prostate cancer patients, cited from earlier work; for uptake into primary prostate cancer tumors: Schuster et al., abstract at SNM 2010
[3] = McConathy and Goodman, Cancer Metastasis Rev. 2008; cited from earlier work

Row | renal clearance (DU145 xenografts) | background activity (DU145 xenografts) | Structure (SMILES) | tumor-contrast (DU145 xenografts) | uptake into primary prostate cancer tumors [2] | background in other organs [2] | renal elimination / excretion into the bladder [2] | other results
1 | – | – | N[C@]1(C(=O)O)COC[C@H]1F (racemic) [compound 15, (3SR,4SR)-3-Amino-4-fluorotetrahydrofuran-3-carboxylic acid] | – | – | – | – | [14C] ACPC uptake into DU145 prostate cancer cells in the presence of excess amount of heterocyclic amino acid [1]: able to block [14C] ACPC uptake
2 | rapid renal clearance | very low background activity | NC1(C(=O)O)COCC1[18F] (racemic) [tracer 45, (3SR,4SR)-3-Amino-4-[^18F]fluorotetrahydrofuran-3-carboxylic acid] | High tumor-contrast | – | – | – | –
3 | rapid renal clearance | very low background activity | N[C@@]1(C(=O)O)CCOC[C@@H]1[18F] (racemic) [tracer 46, (3RS,4RS)-4-Amino-3-[^18F]fluoro-3,4,5,6-tetrahydro-2H-pyran-4-carboxylic acid] | High tumor-contrast | – | – | – | –
4 | – | – | NC1(C(=O)O)CCCC1[18F] (centres unmarked) [2-FACPC] | – | showed uptake into primary prostate cancer tumors | high background signals for instance in the blood pool | excreted into the bladder more rapidly | –
5 | – | – | N[C@]1(C(=O)O)C[C@@H](F)C1 [3-FACBC, anti-1-amino-3-[18F]fluorocyclobutyl-1-carboxylic acid] | – | showed uptake into primary prostate cancer tumors | high background in other organs such as liver and heart | delayed renal elimination | –
6 | – | – | NC1([11C](=O)O)CCC1 [[11C]ACBC, 1-aminocyclobutane-1-[11C]carboxylic acid] | – | – | – | – | metabolism [3]: not metabolized
